Assay results as given in patent US10335409B2 (priority 2012, dated 2019).
Like-named read-outs stand apart in the source and are kept apart here.

Legend:
[1] = system: genotype 1b (Con1) wild type transient HCV replicon in Huh-7-derived cells; assay: Transient-transfected HCV replicon EC50, genotype 1b wild type; format: cell-based, hepatitis C virus; details: 72 h, transient-transfected replicon genotype 1b wild type, read-out: EC50 1B WT
[2] = system: genotype 3a (S52) stable HCV replicon in Huh-7-derived cells; assay: Stable subgenomic HCV replicon EC50, genotype 3a (Renilla luciferase); format: cell-based, hepatitis C virus; details: 72 h, read-out: EC50 3A RLUC
[3] = system: genotype 4a (ED43) stable HCV replicon in Huh-7-derived cells; assay: Stable subgenomic HCV replicon EC50, genotype 4a (Renilla luciferase); format: cell-based, hepatitis C virus; details: 72 h, read-out: EC50 4A RLUC
Summary of the method: (§1)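 Compounds, three-fold diluted, were applied to Huh-7-derived cells harbouring luciferase replicons (genotype 1a H77, 1b Con1, 2a JFH-1, 4a ED43, with strain-specific adaptive mutations). Seventy-two hours later, intracellular replication was gauged by Renilla luciferase activity and EC50 derived by regression.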

[4] = system: genotype 2a (JFH-1) stable HCV replicon in Huh-7-derived cells; assay: Stable subgenomic HCV replicon EC50, genotype 2a (Renilla luciferase); format: cell-based, hepatitis C virus; details: stable replicon genotype 2a, 72 h, read-out: EC50 2A RLUC
Summary of the method: as §1

[5] = system: genotype 1b (Con1) stable HCV replicon in Huh-7-derived cells; assay: Stable subgenomic HCV replicon EC50, genotype 1b (Renilla luciferase); format: cell-based, hepatitis C virus; details: stable replicon genotype 1b, 72 h, read-out: EC50 1B RLUC
Summary of the method: as §1

[6] = system: genotype 3a (S52) wild type transient HCV replicon in Huh-7-derived cells; assay: Transient-transfected HCV replicon EC50, genotype 3a wild type; format: cell-based, hepatitis C virus; details: transient-transfected replicon genotype 3a wild type, 72 h, read-out: EC50 3A WT
[7] = system: genotype 1a (H77) wild type transient HCV replicon in Huh-7-derived cells; assay: Transient-transfected HCV replicon EC50, genotype 1a wild type; format: cell-based, hepatitis C virus; details: 72 h, transient-transfected replicon genotype 1a wild type, read-out: EC50 1A WT
[8] = system: genotype 1a NS3/4a protease inhibitor resistant variant R155K transient HCV replicon in Huh-7-derived cells; assay: Transient-transfected HCV replicon EC50, genotype 1a R155K; format: cell-based, hepatitis C virus; details: 72 h
[9] = target: HCV NS3 protease domain genotype 3a (Hepatitis C virus genotype 3a, UniProt Q81258); assay: Ki determination, NS3 protease genotype 3a (fluorogenic depsipeptide substrate); format: biochemical; details: 200 pM enzyme, NS4A peptide
Summary of the method: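 The NS3 protease domain (aa 1-181) with 20 μM NS4A peptide was used at 50 pM with 4 μM substrate (1b) or at 200 pM with 2 μM substrate (3a). Inhibitors (100 nM-5 pM) were pre-incubated 1 h at room temperature in HEPES/glycerol/DTT buffer with 10% DMSO. Steady-state rates (90-120 min) gave Ki via the Morrison equation, corrected for active enzyme and [S]/Km.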

[10] = system: genotype 1a (H77) stable HCV replicon in Huh-7-derived cells; assay: Stable subgenomic HCV replicon EC50, genotype 1a (Renilla luciferase); format: cell-based, hepatitis C virus; details: stable replicon genotype 1a, 72 h, read-out: EC50 1A RLUC
Summary of the method: as §1

[11] = system: genotype 1b NS3/4a protease inhibitor resistant variant D168A transient HCV replicon in Huh-7-derived cells; assay: Transient-transfected HCV replicon EC50, genotype 1b D168A; format: cell-based, hepatitis C virus; details: 72 h
[12] = Hepatitis C virus, read-out: EC50 1A R155K, transient-transfected replicon genotype 1a R155K resistant variant, 72 h
[13] = Hepatitis C virus, read-out: EC50 1B D168A, transient-transfected replicon genotype 1b D168A resistant variant, 72 h
[14] = stable replicon genotype 3a, Renilla luciferase
[15] = stable replicon genotype 4a, Renilla luciferase
[16] = transient-transfected replicon genotype 1a R155K resistant variant, read-out: EC50 1A R155K
[17] = transient-transfected replicon genotype 1b D168A resistant variant, read-out: EC50 1B D168A

Sequence of HCV NS3 protease domain genotype 3a (Q81258 whole entry, looked up, the tested form may be a part): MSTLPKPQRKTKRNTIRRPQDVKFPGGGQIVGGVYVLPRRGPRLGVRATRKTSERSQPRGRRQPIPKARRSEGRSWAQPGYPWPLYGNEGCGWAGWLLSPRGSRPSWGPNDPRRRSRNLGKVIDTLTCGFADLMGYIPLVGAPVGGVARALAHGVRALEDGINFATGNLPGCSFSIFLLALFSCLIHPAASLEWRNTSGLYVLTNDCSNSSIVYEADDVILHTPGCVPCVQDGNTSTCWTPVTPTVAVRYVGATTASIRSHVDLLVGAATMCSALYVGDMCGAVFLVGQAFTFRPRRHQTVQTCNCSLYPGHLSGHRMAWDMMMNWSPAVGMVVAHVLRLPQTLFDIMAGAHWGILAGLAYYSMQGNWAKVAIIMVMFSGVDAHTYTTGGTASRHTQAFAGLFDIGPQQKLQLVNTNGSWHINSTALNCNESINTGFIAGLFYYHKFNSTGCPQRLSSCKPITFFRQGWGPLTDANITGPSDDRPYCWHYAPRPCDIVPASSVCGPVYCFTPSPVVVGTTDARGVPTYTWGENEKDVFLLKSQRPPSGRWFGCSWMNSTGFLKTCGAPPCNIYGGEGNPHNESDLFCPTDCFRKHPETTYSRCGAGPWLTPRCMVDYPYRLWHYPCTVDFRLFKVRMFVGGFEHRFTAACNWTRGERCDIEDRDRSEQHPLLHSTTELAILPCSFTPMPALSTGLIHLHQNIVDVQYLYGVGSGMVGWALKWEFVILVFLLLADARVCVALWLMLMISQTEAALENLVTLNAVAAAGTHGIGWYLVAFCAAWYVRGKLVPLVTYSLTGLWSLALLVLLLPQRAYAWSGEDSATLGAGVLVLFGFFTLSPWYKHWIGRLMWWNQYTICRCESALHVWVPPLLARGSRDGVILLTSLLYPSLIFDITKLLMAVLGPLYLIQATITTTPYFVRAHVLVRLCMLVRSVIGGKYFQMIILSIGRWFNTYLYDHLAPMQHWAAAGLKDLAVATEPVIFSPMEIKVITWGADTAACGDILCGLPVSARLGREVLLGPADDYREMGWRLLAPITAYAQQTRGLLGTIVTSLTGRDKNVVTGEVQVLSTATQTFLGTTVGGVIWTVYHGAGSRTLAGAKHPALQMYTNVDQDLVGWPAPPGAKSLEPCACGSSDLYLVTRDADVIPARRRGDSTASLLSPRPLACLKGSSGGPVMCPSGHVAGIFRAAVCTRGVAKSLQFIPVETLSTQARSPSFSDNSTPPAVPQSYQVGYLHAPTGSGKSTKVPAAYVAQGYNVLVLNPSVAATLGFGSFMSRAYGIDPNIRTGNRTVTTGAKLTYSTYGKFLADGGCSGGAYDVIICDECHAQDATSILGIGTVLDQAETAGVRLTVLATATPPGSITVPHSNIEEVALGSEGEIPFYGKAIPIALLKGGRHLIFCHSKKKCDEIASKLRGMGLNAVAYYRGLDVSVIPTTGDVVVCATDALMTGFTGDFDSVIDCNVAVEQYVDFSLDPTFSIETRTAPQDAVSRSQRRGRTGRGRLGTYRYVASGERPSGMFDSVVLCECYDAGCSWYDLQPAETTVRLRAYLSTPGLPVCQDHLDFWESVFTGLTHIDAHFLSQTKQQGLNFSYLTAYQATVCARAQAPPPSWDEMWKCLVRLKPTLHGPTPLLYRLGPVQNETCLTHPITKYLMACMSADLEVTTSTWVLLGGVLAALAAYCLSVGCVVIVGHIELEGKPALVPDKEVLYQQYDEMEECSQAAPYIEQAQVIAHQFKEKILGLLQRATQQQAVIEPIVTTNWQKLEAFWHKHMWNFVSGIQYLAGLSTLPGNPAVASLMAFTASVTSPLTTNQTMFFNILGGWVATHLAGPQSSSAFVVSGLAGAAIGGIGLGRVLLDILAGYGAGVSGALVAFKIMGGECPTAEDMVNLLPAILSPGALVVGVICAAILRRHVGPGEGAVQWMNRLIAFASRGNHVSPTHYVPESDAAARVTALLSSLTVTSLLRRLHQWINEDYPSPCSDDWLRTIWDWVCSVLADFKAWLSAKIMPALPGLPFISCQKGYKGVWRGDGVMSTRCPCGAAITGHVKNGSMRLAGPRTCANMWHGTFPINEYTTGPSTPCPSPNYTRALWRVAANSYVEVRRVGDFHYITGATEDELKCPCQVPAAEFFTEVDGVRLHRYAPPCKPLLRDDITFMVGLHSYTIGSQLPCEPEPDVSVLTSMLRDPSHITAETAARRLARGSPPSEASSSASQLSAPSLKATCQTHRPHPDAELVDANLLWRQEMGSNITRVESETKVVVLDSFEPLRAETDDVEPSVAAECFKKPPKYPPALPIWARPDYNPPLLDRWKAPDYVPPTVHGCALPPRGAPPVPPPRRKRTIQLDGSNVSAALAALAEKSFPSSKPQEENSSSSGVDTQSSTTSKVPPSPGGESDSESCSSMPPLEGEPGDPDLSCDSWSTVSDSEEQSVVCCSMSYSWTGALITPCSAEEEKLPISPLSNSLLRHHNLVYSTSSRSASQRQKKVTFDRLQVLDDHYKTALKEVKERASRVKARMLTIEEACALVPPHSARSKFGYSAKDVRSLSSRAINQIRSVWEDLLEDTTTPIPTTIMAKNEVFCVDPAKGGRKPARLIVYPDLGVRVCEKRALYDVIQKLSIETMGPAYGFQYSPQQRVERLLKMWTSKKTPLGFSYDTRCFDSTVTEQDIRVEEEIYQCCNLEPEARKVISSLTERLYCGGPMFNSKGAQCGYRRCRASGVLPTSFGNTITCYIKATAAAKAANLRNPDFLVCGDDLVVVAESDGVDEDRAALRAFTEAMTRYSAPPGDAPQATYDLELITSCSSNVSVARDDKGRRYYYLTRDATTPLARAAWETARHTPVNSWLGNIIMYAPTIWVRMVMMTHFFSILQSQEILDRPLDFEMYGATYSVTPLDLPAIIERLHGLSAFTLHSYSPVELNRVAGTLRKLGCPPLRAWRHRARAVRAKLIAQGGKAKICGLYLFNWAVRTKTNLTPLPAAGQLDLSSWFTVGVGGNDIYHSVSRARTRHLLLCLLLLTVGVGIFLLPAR

Compound	EC50 ([1]; Hepatitis C virus)	EC50 ([2]; Hepatitis C virus)	EC50 ([3]; Hepatitis C virus)	EC50 ([4]; Hepatitis C virus)	EC50 ([5]; Hepatitis C virus)	EC50 ([6]; Hepatitis C virus)	EC50 ([7]; Hepatitis C virus)	EC50 [8, 12]	Ki [9]	EC50 ([10]; Hepatitis C virus)	EC50 [11, 13]	also measured
COc1ccc2nc3c(nc2c1)O[C@H]1CN(C(=O)[C@H](C(C)(C)C)NC(=O)O[C@@H]2CCCC[C@H]2CCCCC3(F)F)[C@H](C(=O)N[C@]2(C(=O)NS(=O)(=O)C3CC3)C[C@H]2C(F)F)[C@@H]1C [Example 68, (4aR,8S,11 S,12S,13R,25aS)-8-tert-butyl-N-[(1R,2R)-1-[(cyclopropylsulfonyl)carbamoyl]-2-(difluoromethyl)cyclopropyl]-21,21-difluoro-17-methoxy-12-methyl-6,9-dioxo-2,3,4,4a,6,7,8,9,12,13,21,22,23,24,25,25a-hexadecahydro-1H,11H-10,13-methanoquinoxalino[2,3-k][1,10,3,6]benzodioxadiazacyclononadecine-11-carboxamide]	4.4 nM	364 nM	9.4 nM	18 nM	7.7 nM	139 nM	14 nM	37 nM	0.63 nM	13 nM	78 nM	–
CC[C@@H]1[C@@H]2CN(C(=O)[C@H](C(C)(C)C)NC(=O)O[C@]3(C)C[C@H]3CCCCCc3nc4ccc(OC)cc4nc3O2)[C@@H]1C(=O)N[C@]1(C(=O)NS(=O)(=O)C2(C)CC2)C[C@H]1C(F)F [Example 7, (1aR,5S,8S,9S,10R,22aR)-5-tert-butyl-N-[(1R,2R)-2-(difluoromethyl)-1-{[(1-methylcyclopropyl)sulfonyl]carbamoyl}cyclopropyl]-9-ethyl-14-methoxy-1a-methyl-3,6-dioxo-1,1a,3,4,5,6,9,10,18,19,20,21,22,22a-tetradecahydro-8H-7,10-methanocyclopropa[18,19][1,10,3,6] dioxadiazacyclononadecino[11,12-b]quinoxaline-8-carboxamide]	2.3 nM	67 nM	3.2 nM	4.2 nM	3.8 nM	14 nM	3.8 nM	6.7 nM	0.06 nM	4.9 nM	20 nM	–
CC[C@@H]1[C@@H]2CN(C(=O)[C@H](C(C)(C)C)NC(=O)O[C@@H]3C[C@H]3CCCCCc3nc4ccc(OC)cc4nc3O2)[C@@H]1C(=O)N[C@]1(C(=O)NS(=O)(=O)C2(C)CC2)C[C@H]1C(F)F [Example 1, (1aR,5S,8S,9S,10R,22aR)-5-tert-butyl-N-[(1R,2R)-2-(difluoromethyl)-1-{[(1-methylcyclopropyl)sulfonyl]carbamoyl}cyclopropyl]-9-ethyl-14-methoxy-3,6-dioxo-1,1a,3,4,5,6,9,10,18,19,20,21,22,22a-tetradecahydro-8H-7,10-methanocyclopropa[18,19][1,10,3,6]dioxadiazacyclononadecino[11,12-b]quinoxaline-8-carboxamide]	2.2 nM	46 nM	3.1 nM	4.1 nM	3.9 nM	17 nM	3.2 nM	4.9 nM	0.07 nM	4.4 nM	17 nM	–
CC[C@@H]1[C@@H]2CN(C(=O)[C@H](C(C)(C)C)NC(=O)O[C@]3(C)CCC[C@H]3CCCCCc3nc4ccc(OC)cc4nc3O2)[C@@H]1C(=O)N[C@]1(C(=O)NS(=O)(=O)C2(C)CC2)C[C@H]1C(F)F [Example 39]	16 nM	321 nM	26 nM	41 nM	39 nM	89 nM	23 nM	63 nM	0.2 nM	34 nM	105 nM	–
(1aR,5S,8S,9S,10R,22aR)-5-tert-butyl-14-chloro-N-[(1R,2R)-2-(difluoromethyl)-1-{[(1-methylcyclopropyl)sulfonyl]carbamoyl}cyclopropyl]-18,18-difluoro-9-methyl-3,6-dioxo-1,1a,3,4,5,6,9,10,18,19,20,21,22,22a-tetradecahydro-8H-7,10-methanocyclopropa[18,19][3,6]dioxadiazacyclononadecino[11,12-b]quinoxaline-8-carboxamide [Example 88]	–	–	–	–	–	–	–	–	0.29 nM	–	–	EC50 [1]: 5.5 nM; EC50 [2, 14]: 105 nM; EC50 [3, 15]: 4.1 nM; EC50 [4]: 2.7 nM; EC50 [5]: 4.6 nM; EC50 [6]: 35 nM; EC50 [7]: 5 nM; EC50 [8, 16]: 14 nM; EC50 [10]: 9.3 nM; EC50 [11, 17]: 24 nM
CC[C@@H]1[C@@H]2CN(C(=O)[C@H](C(C)(C)C)NC(=O)O[C@@H]3CCCC[C@H]3CCCCCc3nc4ccc(OC)cc4nc3O2)[C@@H]1C(=O)N[C@]1(C(=O)NS(=O)(=O)C2CC2)C[C@H]1C(F)F [Example 66, (4aR,8S,11 S,12S,13R,25aR)-8-tert-butyl-N-[(1R,2R)-1-[(cyclopropylsulfonyl)carbamoyl]-2-(difluoromethyl)cyclopropyl]-12-ethyl-17-methoxy-6,9-dioxo-2,3,4,4a,6,7,8,9,12,13,21,22,23,24,25,25a-hexadecahydro-1H,11H-10,13-methanoquinoxalino[2,3-k][1,10,3,6]benzodioxadiazacyclononadecine-11-carboxamide]	14 nM	1790 nM	25 nM	105 nM	20 nM	735 nM	35 nM	240 nM	0.06 nM	37 nM	396 nM	–
CC[C@@H]1[C@@H]2CN(C(=O)[C@H](C(C)(C)C)NC(=O)O[C@@H]3C[C@H]3CC/C=C/C(F)(F)c3nc4ccc(OC)cc4nc3O2)[C@@H]1C(=O)N[C@]1(C(=O)NS(=O)(=O)C2(C)CC2)C[C@H]1C(F)F [Example 89]	–	–	–	–	–	–	–	–	0.05 nM	–	–	EC50 [1]: 3.2 nM; EC50 [2, 14]: 19 nM; EC50 [3, 15]: 4.6 nM; EC50 [4]: 4.3 nM; EC50 [5]: 6.1 nM; EC50 [6]: 5.5 nM; EC50 [7]: 6 nM; EC50 [8, 16]: 3.7 nM; EC50 [10]: 6 nM; EC50 [11, 17]: 5.1 nM
CC[C@@H]1[C@@H]2CN(C(=O)[C@H](C(C)(C)C)NC(=O)O[C@]3(C)C[C@H]3CCCCC(F)(F)c3nc4ccc(OC)cc4nc3O2)[C@@H]1C(=O)N[C@]1(C(=O)NS(=O)(=O)C2(C)CC2)C[C@H]1C(F)F [Example 63, (1aR,5S,8S,9S,10R,22aR)-5-tert-butyl-N-[(1R,2R)-2-(difluoromethyl)-1-{[(1-methylcyclopropyl)sulfonyl]carbamoyl}cyclopropyl]-9-ethyl-18,18-difluoro-14-methoxy-1a-methyl-3,6-dioxo-1,1a,3,4,5,6,9,10,18,19,20,21,22,22a-tetradecahydro-8H-7,10-methanocyclopropa[18,19][1,10,3,6]dioxadiazacyclononadecino[11,12-b]quinoxaline-8-carboxamide]	2.1 nM	11 nM	3.2 nM	3.2 nM	2.9 nM	6.9 nM	4.1 nM	4 nM	0.01 nM	4.2 nM	3.4 nM	–
